Results published in US10131679B2, “Substituted dihydropyrrolopyrazole compound” (UBE INDUSTRIES, LTD., priority 2014, dated 2018).

What was measured:
CDK7 = biological target: T1, CDK7 (Homo sapiens, UniProt P50613); assay: CDK7 enzyme inhibition test; type: biochemical; details: Ki=IC50/(1+S/Km); 33P bound to MBP, [γ-33P]ATP, 30° C. for 20 minutes; read-out: Ki value of CDK7 inhibitory activity
T1 construct: purchased Carna Biosciences, Inc. 04-108
Procedure: CDK7 Enzyme Inhibition Test
The preparation of a buffer solution was performed by mixing a N-2-hydroxyethylpiperazine-N′-2-ethanesulfonic acid buffer solution (HEPES buffer solution) (pH 7.4), dithiothreitol (DTT), Triton X-100, and magnesium chloride (MgCl2). A 500 μM [γ-^33P]ATP solution was used by diluting a 10 mM ATP solution and a commercially available [γ-^33P]ATP solution (manufactured by PerkinElmer, Inc., Code No. NEG-302H) with the buffer solution. A CDK7 solution was used by diluting commercially available CDK7 (manufactured by Carna Biosciences, Inc., Catalog No. 04-108) with the buffer solution. A substrate solution was used by diluting myelin basic protein (MBP) with the buffer solution. As for the preparation of a reaction solution, the buffer solution, the 500 μM [γ-^33P]ATP solution, the CDK7 solution, and the substrate solution were mixed at 4° C. to obtain a reaction solution.
CDK7 enzyme reaction was performed by adding 5 μL of a test compound solution prepared with 10% dimethyl sulfoxide (DMSO)/90% injectable distilled water, and 45 μL of the reaction solution to a 1.5 mL microtube at 4° C. and reacting in the microtube at 30° C. for 20 minutes in a water bath incubator. After the reaction, a 10% aqueous trichloroacetic acid (TCA) solution was added to each microtube while cooled to 4° C., and mixed to terminate the reaction. The resultant was left standing at 4° C. for 10 minutes and then centrifuged in a centrifuge, and the supernatant was discarded. Next, a 2% aqueous TCA solution was added, mixed, and then centrifuged in a centrifuge, and the supernatant was discarded. This washing operation was performed twice. After the washing, precipitates were dissolved in a 1 N aqueous sodium hydroxide (NaOH) solution, and the energy quantity (radioactivity) of the reaction product was measured with a liquid scintillation counter.
The calculation of the inhibitory activity of the test compound against CDK7 was performed as a test compound concentration inhibiting 50% of the amount of ^33P bound to MBP (IC50 value) by using EXSUS (version 8.0.0 or version 8.0.1, manufactured by CAC Exicare Corp.).
(§1) The calculation of a Ki value was performed according to the following calculation expression. S means the concentration of ATP contained in the reaction solution, and Km means a Michaelis-Menten constant. Ki=IC50/(1+S/Km)

[1] = system: human large intestine cancer cell line (HCT-116); assay: Human large intestine cancer (HCT-116) cell growth inhibition test; type: cell-based; details: 72 h, HCT-116, culture for 3 days, sulforhodamine B absorbance
Procedure: Human Large Intestine Cancer (HCT-116) Cell Growth Inhibition Test
The measurement of a human large intestine cancer cell growth inhibitory effect was carried out by modifying the method of Simak et al. (Cancer Research, 69, 6208 (2009)).
A human large intestine cancer cell line (HCT-116) (manufactured by DS Pharma Biomedical Co., Ltd., Cat. No. EC91091005) was cultured in McCoy's 5a (manufactured by GIBCO/Thermo Fisher Scientific, Inc., REF. 16600-082) medium containing 10% FBS (manufactured by GIBCO/Thermo Fisher Scientific, Inc., REF. 10082-147) and 1% penicillin/streptomycin/amphotericin B (manufactured by GIBCO/Thermo Fisher Scientific, Inc., REF. 15240-096) and inoculated at 1.0×10^3 cells/well in a 96-well plate (manufactured by Corning Inc., REF. 353072). After overnight culture in a carbon dioxide incubator, it was replaced with a fresh McCoy's 5a medium containing 10% FBS on the next day, and a test compound dissolved in DMSO (manufactured by Wako Pure Chemical Industries, Ltd., Code No. 043-07216) (final DMSO concentration: 0.1%) was added and left standing in a carbon dioxide incubator. After culturing for 3 days, the absorbance of each well was measured by using In Vitro Toxicology Assay Kit Sulforhodamine B based (manufactured by Sigma-Aldrich Co. LLC., Pcode 1001910706).
The rate of inhibition of cell growth at each concentration was calculated from the test compound concentration and the absorbance of sulforhodamine B, and the concentration of the test compound necessary for inhibiting 50% of cell growth (IC50 value) was calculated by using EXSUS (version 8.0.0 or version 8.0.1, manufactured by CAC Exicare Corp.).

CDK2 = biological target: T2, CDK2 (Homo sapiens, UniProt P24941); assay: CDK2 enzyme inhibition test; type: biochemical; details: Ki=IC50/(1+S/Km); 33P bound to MBP, [γ-33P]ATP, 30° C. for 20 minutes; read-out: Ki value of CDK2 inhibitory activity
T2 construct: purchased Invitrogen Corp. PV3267
Procedure: CDK2 Enzyme Inhibition Test
The preparation of a buffer solution was performed by mixing a HEPES buffer solution (pH 7.4), DTT, Triton X-100, and MgCl2. A 500 μM [γ-^33P]ATP solution was used by diluting a 10 mM ATP solution and a commercially available [γ-^33P]ATP solution (manufactured by PerkinElmer, Inc., Code No. NEG-302H) with the buffer solution. A CDK2 solution was used by diluting commercially available CDK2 (manufactured by Invitrogen Corp., Catalog No. PV3267) with the buffer solution. A substrate solution was used by diluting MBP with the buffer solution. As for the preparation of a reaction solution, the buffer solution, the 500 μM [γ-^33P]ATP solution, the CDK2 solution, and the substrate solution were mixed at 4° C. to obtain a reaction solution.
CDK2 enzyme reaction was performed by adding 5 μL of a test compound solution prepared with 10% DMSO/90% injectable distilled water, and 45 μL of the reaction solution in a 1.5 mL microtube at 4° C. and reacting in the microtube at 30° C. for 20 minutes in a water bath incubator. After the reaction, a 10% aqueous TCA solution was added to each microtube while cooled to 4° C., and mixed to terminate the reaction. The resultant was left standing at 4° C. for 10 minutes and then centrifuged in a centrifuge, and the supernatant was discarded. Next, a 2% aqueous TCA solution was added, mixed thereto, and then centrifuged in a centrifuge, and the supernatant was discarded. This washing operation was performed twice. After the washing, precipitates were dissolved in a 1 N aqueous NaOH solution, and the radioactivity was measured with a liquid scintillation counter.
The calculation of the inhibitory activity of the test compound against CDK2 was performed as a test compound concentration inhibiting 50% of the amount of ^33P bound to MBP (IC50 value) by using EXSUS (version 8.0.0 or version 8.0.1, manufactured by CAC Exicare Corp.).
as §1

T1 sequence (P50613 whole entry): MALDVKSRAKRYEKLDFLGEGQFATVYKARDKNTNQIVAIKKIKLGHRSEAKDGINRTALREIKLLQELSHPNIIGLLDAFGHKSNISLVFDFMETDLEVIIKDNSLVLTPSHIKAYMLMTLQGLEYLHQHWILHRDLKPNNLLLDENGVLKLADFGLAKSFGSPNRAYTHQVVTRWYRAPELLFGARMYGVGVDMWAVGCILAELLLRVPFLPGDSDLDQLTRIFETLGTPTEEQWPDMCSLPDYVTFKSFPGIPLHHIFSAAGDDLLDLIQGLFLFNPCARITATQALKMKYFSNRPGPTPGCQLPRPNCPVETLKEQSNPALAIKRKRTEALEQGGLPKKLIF
T1 sequence (P51946 whole entry partner): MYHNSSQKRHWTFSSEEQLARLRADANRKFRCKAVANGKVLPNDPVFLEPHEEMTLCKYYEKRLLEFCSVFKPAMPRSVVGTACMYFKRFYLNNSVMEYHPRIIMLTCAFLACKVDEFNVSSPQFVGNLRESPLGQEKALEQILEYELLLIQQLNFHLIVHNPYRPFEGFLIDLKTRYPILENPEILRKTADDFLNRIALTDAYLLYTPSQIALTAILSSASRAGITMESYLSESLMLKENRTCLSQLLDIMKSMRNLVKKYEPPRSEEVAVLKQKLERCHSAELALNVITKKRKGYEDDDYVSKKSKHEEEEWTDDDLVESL
T1 sequence (P51948 whole entry partner): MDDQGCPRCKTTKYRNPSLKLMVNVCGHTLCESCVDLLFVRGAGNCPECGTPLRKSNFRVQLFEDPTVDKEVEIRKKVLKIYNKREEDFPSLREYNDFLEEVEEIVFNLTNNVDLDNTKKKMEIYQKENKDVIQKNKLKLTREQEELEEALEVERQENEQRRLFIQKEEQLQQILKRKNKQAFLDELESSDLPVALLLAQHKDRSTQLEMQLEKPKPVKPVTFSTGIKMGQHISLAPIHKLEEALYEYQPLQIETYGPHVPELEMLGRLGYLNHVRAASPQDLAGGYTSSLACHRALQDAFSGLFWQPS

For CC1(C)c2[nH]nc(NC(=O)C3([Si](C)(C)C)CCC3)c2CN1C(=O)NC[C@H](O)c1ccccc1 [IV-786, (R)—N-(2-Hydroxy-2-phenylethyl)-6,6-dimethyl-3-[1-(trimethylsilyl)cyclobutanecarboxamido]-4,6-dihydropyrrolo[3,4-c]pyrazole-5(1H)-carboxamide], which Ki (CDK7) is on record?
The Ki was no more than 50 nM.

What about the IC50 [1] of the same compound?
Its IC50 is no more than 500 nM.

How did the Ki (CDK7) turn out when CC1(C)c2[nH]nc(NC(=O)C3([Si](C)(C)C)CCC3)c2CN1C(=O)NC[C@@H](O)c1ccccc1 [IV-787, (S)—N-(2-Hydroxy-2-phenylethyl)-6,6-dimethyl-3-[1-(trimethylsilyl)cyclobutanecarboxamido]-4,6-dihydropyrrolo[3,4-c]pyrazole-5(1H)-carboxamide] was run?
Its Ki is no more than 50 nM.

What about the IC50 [1] of the same compound?
The IC50 was no more than 500 nM.

With CC(C)[C@@H](CC(C)(C)O)NC(=O)N1Cc2c(NC(=O)C3([Si](C)(C)C)CCC3)n[nH]c2C1(C)C [IV-815, (R)—N-(5-Hydroxy-2,5-dimethylhexan-3-yl)-6,6-dimethyl-3-[1-(trimethylsilyl)cyclobutanecarboxamido]-4,6-dihydropyrrolo[3,4-c]pyrazole-5(1H)-carboxamide] as the compound, how does the Ki (CDK7) read?
Its Ki is no more than 50 nM.

And the IC50 [1]?
Its IC50 is no more than 500 nM.

With CC1(C)c2[nH]nc(NC(=O)C3([Si](C)(C)C)CCC3)c2CN1C(=O)N[C@H](CO)Cc1ccccc1 [IV-862, (S)—N-(1-Hydroxy-3-phenylpropan-2-yl)-6,6-dimethyl-3-[1-(trimethylsilyl)cyclobutanecarboxamido]-4,6-dihydropyrrolo[3,4-c]pyrazole-5(1H)-carboxamide] as the compound, how does the Ki (CDK7) read?
Its Ki is no more than 50 nM.

What about the IC50 [1] of the same compound?
Its IC50 is no more than 500 nM.

With CC(C)(CO)C(NC(=O)N1Cc2c(NC(=O)C3([Si](C)(C)C)CCC3)n[nH]c2C1(C)C)c1ccccc1F (stereo not shown) [IV-890, N-[1-(2-Fluorophenyl)-3-hydroxy-2,2-dimethylpropyl]-6,6-dimethyl-3-[1-(trimethylsilyl)cyclobutanecarboxamido]-4,6-dihydropyrrolo[3,4-c]pyrazole-5(1H)-carboxamide] as the compound, how does the IC50 [1] read?
Its IC50 is no more than 500 nM.

And the Ki (CDK2)?
Its Ki is no less than 1000 nM.

What does the source list for CC1(C)c2[nH]nc(NC(=O)C3([Si](C)(C)C)CCC3)c2CN1C(=O)N[C@H](CO)c1ccccc1Cl [IV-959, (S)—N-[1-(2-Chlorophenyl)-2-hydroxyethyl]-6,6-dimethyl-3-[1-(trimethylsilyl)cyclobutanecarboxamido]-4,6-dihydropyrrolo[3,4-c]pyrazole-5(1H)-carboxamide]?
Ki (CDK7): ≤ 50 nM; IC50 [1]: ≤ 500 nM

How did the Ki (CDK7) turn out when Cc1ccccc1[C@@H](CO)NC(=O)N1Cc2c(NC(=O)C3([Si](C)(C)C)CCC3)n[nH]c2C1(C)C [IV-1067, (S)—N-[2-Hydroxy-1-(o-tolyl)ethyl]-6,6-dimethyl-3-[1-(trimethylsilyl)cyclobutanecarboxamido]-4,6-dihydropyrrolo[3,4-c]pyrazole-5(1H)-carboxamide] was run?
The Ki was no more than 50 nM.

What about the IC50 [1] of the same compound?
The IC50 was no more than 500 nM.

Which Ki (CDK7) does the source give for CO[C@H](C(=O)N1Cc2c(NC(=O)C3([Si](C)(C)C)CCC3)n[nH]c2C1(C)C)c1ccccc1 [IV-1176, (S)—N-[5-(2-Methoxy-2-phenylacetyl)-6,6-dimethyl-1,4,5,6-tetrahydropyrrolo[3,4-c]pyrazol-3-yl]-1-(trimethylsilyl)cyclobutanecarboxamide] here?
Its Ki is no more than 50 nM.

What about the IC50 [1] of the same compound?
The IC50 was no more than 500 nM.

CC1(C)c2[nH]nc(NC(=O)C3([Si](C)(C)C)CCC3)c2CN1C(=O)[C@@H](CO)c1ccccc1 [IV-1215, (R)—N-[5-(3-Hydroxy-2-phenylpropanoyl)-6,6-dimethyl-1,4,5,6-tetrahydropyrrolo[3,4-c]pyrazol-3-yl]-1-(trimethylsilyl)cyclobutanecarboxamide] was tested. Which Ki (CDK7) did it give?
The Ki was no more than 50 nM.

What about the IC50 [1] of the same compound?
The IC50 was no more than 500 nM.

Which results are given for COC(C)C(=O)N1Cc2c(NC(=O)C3([Si](C)(C)C)CCC3)n[nH]c2C1(C)C (stereo not shown) [IV-1241, N-[5-(2-Methoxypropanoyl)-6,6-dimethyl-1,4,5,6-tetrahydropyrrolo[3,4-c]pyrazol-3-yl]-1-(trimethylsilyl)cyclobutanecarboxamide]?
Ki (CDK7): ≤ 50 nM; IC50 [1]: ≤ 500 nM

What does the source list for CC(Oc1cccnc1)C(=O)N1Cc2c(NC(=O)C3([Si](C)(C)C)CCC3)n[nH]c2C1(C)C (stereo not shown) [IV-1274, N-{6,6-Dimethyl-5-[2-(pyridin-3-yloxy)propanoyl]-1,4,5,6-tetrahydropyrrolo[3,4-c]pyrazol-3-yl}-1-(trimethylsilyl)cyclobutanecarboxamide]?
Ki (CDK7): ≤ 50 nM; IC50 [1]: ≤ 500 nM

Which Ki (CDK7) does the source give for CC1(C)c2[nH]nc(NC(=O)C3([Si](C)(C)C)CCC3)c2CN1C(=O)C(CO)Oc1ccccc1 (stereo not shown) [IV-1330, N-[5-(3-Hydroxy-2-phenoxypropanoyl)-6,6-dimethyl-1,4,5,6-tetrahydropyrrolo[3,4-c]pyrazol-3-yl]-1-(trimethylsilyl)cyclobutanecarboxamide] here?
Its Ki is no more than 50 nM.

And the IC50 [1]?
Its IC50 is no more than 500 nM.

Which results are given for COCC(Oc1ccccc1)C(=O)N1Cc2c(NC(=O)C3([Si](C)(C)C)CCC3)n[nH]c2C1(C)C (stereo not shown) [IV-1348, N-[5-(3-Methoxy-2-phenoxypropanoyl)-6,6-dimethyl-1,4,5,6-tetrahydropyrrolo[3,4-c]pyrazol-3-yl]-1-(trimethylsilyl)cyclobutanecarboxamide]?
Ki (CDK7): ≤ 50 nM; IC50 [1]: ≤ 500 nM

Which Ki (CDK7) does the source give for COC(C(=O)N1Cc2c(NC(=O)C3([Si](C)(C)C)CCC3)n[nH]c2C1(C)C)c1ccc(F)cc1 (stereo not shown) [IV-1427, N-{5-[2-(4-Fluorophenyl)-2-methoxyacetyl]-6,6-dimethyl-1,4,5,6-tetrahydropyrrolo[3,4-c]pyrazol-3-yl}-1-(trimethylsilyl)cyclobutanecarboxamide] here?
The Ki was no more than 50 nM.

And the IC50 [1]?
Its IC50 is no more than 500 nM.
